In ChEMBL document CHEMBL3046330, “Synthesis and biological activity of hydrazidehydrazones and their corresponding 3-acetyl-2,5-disubstituted-2,3-dihydro-1,3,4-oxadiazoles” (Med Chem Res, 2012):
Values after ≈ are worked out from the molar mass of the structure shown. Active and inactive are the calls of the source. The rule behind the calls is not given here.

Experiments:
Candida albicans [1] = test: Antifungal activity against Candida albicans clinical isolate at 2000 ug/ml by agar diffusion method; format: functional; conditions: read-out: IZ
Candida albicans [2] = test: Antifungal activity against Candida albicans clinical isolate after 24 hr by NCCLS broth microdilution method; format: functional
Cyberlindnera jadinii = test: Antifungal activity against Cyberlindnera jadinii NRRL Y-900 after 24 hr by NCCLS broth microdilution method; format: functional; conditions: Williopsis jadinii, NRRL Y-900, 24 h
Nakaseomyces glabratus = test: Antifungal activity against Candida glabrata clinical isolate after 24 hr by NCCLS broth microdilution method; format: functional
Candida tropicalis [3] = test: Antifungal activity against Candida tropicalis NRRL Y-12968 after 24 hr by NCCLS broth microdilution method; format: functional; conditions: NRRL Y-12968, 24 h
Botrytis cinerea = test: Antifungal activity against Botryotinia fuckeliana at 0.3 to 30 uM after 48 to 72 hr by broth microdilution method; format: functional, organism-based
[4] = Cytotoxicity against Sus scrofa (pig) LLC-PK11 cells assessed as cell viability up to 25 ug/ml after 48 hr by neutral red assay; format: cell-based; conditions: llc-pk11, 48 h
SW1353 = test: Inhibition of PMA-induced NFkappaB activity in Homo sapiens (human) SW1353 cells up to 25 ug/ml incubated for 30 min followed by PMA induction for 8 hr by luciferase reporter gene assay; format: cell-based
Candida albicans [5] = test: Antifungal activity against Candida albicans ATCC 90028 after 24 hr by NCCLS broth microdilution method; format: functional; conditions: ATCC 90028, 24 h
[6] = molecular target: T1, Nitric oxide synthase, inducible (Mus musculus, UniProt P29477); test: Inhibition of iNOS in Mus musculus (mouse) RAW264.7 cells assessed as inhibition of LPS-induced nitrite production incubated for 30 min prior to LPS challenge measured after 24 hr by Griess assay; format: cell-based
T1 sequence (P29477 whole entry): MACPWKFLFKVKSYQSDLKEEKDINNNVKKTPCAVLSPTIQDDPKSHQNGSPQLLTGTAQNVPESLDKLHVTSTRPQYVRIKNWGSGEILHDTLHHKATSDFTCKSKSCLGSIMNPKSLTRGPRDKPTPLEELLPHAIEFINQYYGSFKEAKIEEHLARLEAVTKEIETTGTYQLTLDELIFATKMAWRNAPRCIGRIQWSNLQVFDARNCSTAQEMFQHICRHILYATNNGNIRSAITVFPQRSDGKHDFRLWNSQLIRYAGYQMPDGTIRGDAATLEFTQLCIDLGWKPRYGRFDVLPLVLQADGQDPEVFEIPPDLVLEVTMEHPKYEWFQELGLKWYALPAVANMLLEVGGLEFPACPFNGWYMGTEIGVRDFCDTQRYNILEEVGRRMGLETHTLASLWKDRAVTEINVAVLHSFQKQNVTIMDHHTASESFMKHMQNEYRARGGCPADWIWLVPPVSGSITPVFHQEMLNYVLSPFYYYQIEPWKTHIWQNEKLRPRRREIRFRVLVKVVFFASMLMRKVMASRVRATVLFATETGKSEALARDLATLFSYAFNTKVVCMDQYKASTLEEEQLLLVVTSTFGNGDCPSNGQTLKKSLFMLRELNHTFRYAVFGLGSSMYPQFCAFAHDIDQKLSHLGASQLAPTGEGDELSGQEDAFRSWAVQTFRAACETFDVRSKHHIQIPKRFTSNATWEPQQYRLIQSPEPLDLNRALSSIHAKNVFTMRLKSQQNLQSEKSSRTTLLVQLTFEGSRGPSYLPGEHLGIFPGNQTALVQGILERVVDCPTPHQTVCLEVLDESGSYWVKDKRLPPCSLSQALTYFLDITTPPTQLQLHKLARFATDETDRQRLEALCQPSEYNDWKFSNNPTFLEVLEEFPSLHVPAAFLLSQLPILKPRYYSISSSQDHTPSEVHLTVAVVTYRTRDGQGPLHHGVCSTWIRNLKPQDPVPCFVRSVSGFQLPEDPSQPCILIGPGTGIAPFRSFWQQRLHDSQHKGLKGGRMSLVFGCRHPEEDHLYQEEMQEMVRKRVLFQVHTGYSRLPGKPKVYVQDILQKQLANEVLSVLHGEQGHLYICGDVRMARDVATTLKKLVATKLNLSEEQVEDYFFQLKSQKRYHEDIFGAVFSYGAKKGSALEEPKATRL

Candida parapsilosis = test: Antifungal activity against Candida parapsilosis NRRL Y-12696 after 24 hr by NCCLS broth microdilution method; format: functional; conditions: Lodderomyces parapsilosis, NRRL Y-12696, 24 h
Candida albicans [7] = test: Antifungal activity against Candida albicans NRRL Y-12983 after 24 hr by NCCLS broth microdilution method; format: functional; conditions: NRRL Y-12983, 24 h
HL-60 [8] = test: Antioxidant activity in PMA-stimulated Homo sapiens (human) HL60 cells assessed as inhibition of intracellular ROS generation up to 25 ug/ml incubated for 30 min prior to PMA stimulation measured after 30 min by DCFH-DA assay relative to vehicle-treated control; format: functional, cell-based
BT-549 = test: Cytotoxicity against Homo sapiens (human) BT549 cells assessed as cell viability up to 25 ug/ml after 48 hr by neutral red assay; format: functional, cell-based
RAW264.7 [9] = test: Cytotoxicity against Mus musculus (mouse) RAW264.7 cells up to 25 ug/ml; format: cell-based
Candida tropicalis [10] = test: Antifungal activity against Candida tropicalis NRRL Y-12968 at 2000 ug/ml by agar diffusion method; format: functional; conditions: read-out: IZ
Vero = test: Cytotoxicity against Chlorocebus aethiops (African green monkey) Vero cells assessed as cell viability up to 25 ug/ml after 48 hr by neutral red assay; format: cell-based; conditions: chlorocebus sabaeus
Colletotrichum fragariae = test: Antifungal activity against Colletotrichum fragariae at 0.3 to 30 uM after 48 to 72 hr by broth microdilution method; format: functional, organism-based
Fusarium oxysporum = test: Antifungal activity against Fusarium oxysporum assessed as growth inhibition at 30 uM after 72 hr by broth microdilution method; format: functional; conditions: read-out: GI
HL-60 [11] = test: Cytotoxicity against Homo sapiens (human) HL60 cells; format: cell-based
Diaporthe ampelina = test: Antifungal activity against Diaporthe ampelina assessed as growth inhibition at 30 uM after 144 hr by broth microdilution method; format: functional; conditions: read-out: GI
SK-MEL = test: Cytotoxicity against Homo sapiens (human) SK-MEL cells assessed as cell viability up to 25 ug/ml after 48 hr by neutral red assay; format: functional, cell-based
Transcription factor Sp1 = Transcription factor Sp1 (Homo sapiens, UniProt P08047); test: Inhibition of Sp1 (unknown origin) up to 25 ug/ml by luciferase reporter gene assay
SK-OV-3 = test: Cytotoxicity against Homo sapiens (human) SKOV3 cells assessed as cell viability up to 25 ug/ml after 48 hr by neutral red assay; format: functional, cell-based
KB = test: Cytotoxicity against Homo sapiens (human) KB cells assessed as cell viability up to 25 ug/ml after 48 hr by neutral red assay; format: functional, cell-based
Pichia kudriavzevii = test: Antifungal activity against Pichia kudriavzevii NRRL Y-7179 after 24 hr by NCCLS broth microdilution method; format: functional; conditions: NRRL Y-7179, 24 h
[12] = system: Colletotrichum gloeosporioides; test: Antifungal activity against Colletotrichum gloeosporioides assessed as growth inhibition at 30 uM after 72 hr by broth microdilution method; format: functional; conditions: read-out: GI
RAW264.7 [13] = test: Cytotoxicity against Mus musculus (mouse) RAW264.7 cells; format: cell-based
[14] = Inhibition of PMA-induced NFkappaB activity in Homo sapiens (human) SW1353 cells incubated for 30 min followed by PMA induction for 8 hr by luciferase reporter gene assay; format: cell-based
HL-60 [15] = test: Antioxidant activity in PMA-stimulated Homo sapiens (human) HL60 cells assessed as inhibition of intracellular ROS generation incubated for 30 min prior to PMA stimulation measured after 30 min by DCFH-DA assay; format: functional, cell-based

Chain of Transcription factor Sp1 (P08047 whole entry): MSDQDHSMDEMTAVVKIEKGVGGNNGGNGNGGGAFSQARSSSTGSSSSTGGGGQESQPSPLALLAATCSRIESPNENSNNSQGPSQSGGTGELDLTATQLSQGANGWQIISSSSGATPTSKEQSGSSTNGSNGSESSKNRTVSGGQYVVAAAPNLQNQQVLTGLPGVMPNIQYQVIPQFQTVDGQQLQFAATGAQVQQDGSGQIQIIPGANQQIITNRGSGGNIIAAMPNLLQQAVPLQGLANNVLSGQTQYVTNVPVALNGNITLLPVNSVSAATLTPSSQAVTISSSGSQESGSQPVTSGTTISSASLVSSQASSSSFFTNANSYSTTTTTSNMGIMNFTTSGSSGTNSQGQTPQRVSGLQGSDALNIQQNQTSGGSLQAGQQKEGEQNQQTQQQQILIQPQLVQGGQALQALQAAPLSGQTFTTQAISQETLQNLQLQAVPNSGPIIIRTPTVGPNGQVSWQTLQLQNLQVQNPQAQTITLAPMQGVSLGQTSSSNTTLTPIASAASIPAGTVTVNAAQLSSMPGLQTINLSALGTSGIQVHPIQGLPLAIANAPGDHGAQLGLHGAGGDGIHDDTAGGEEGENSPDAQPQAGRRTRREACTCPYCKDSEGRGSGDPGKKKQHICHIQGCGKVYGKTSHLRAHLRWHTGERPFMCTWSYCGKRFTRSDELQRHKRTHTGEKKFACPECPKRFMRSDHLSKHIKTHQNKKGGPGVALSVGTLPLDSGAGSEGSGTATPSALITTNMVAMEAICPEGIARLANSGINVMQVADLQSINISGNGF

Compound	zone of inhibition at 2000 µg/mL (Candida albicans [1]) [mm]	MIC (Candida albicans [2]) [µg/mL]	MIC (Cyberlindnera jadinii) [µg/mL]	MIC (Nakaseomyces glabratus) [µg/mL]	MIC (Candida tropicalis [3]) [µg/mL]	Activity (Botrytis cinerea)	Activity [4]	MIC (Candida albicans [5]) [µg/mL]	IC50 [6] [µM]	MIC (Candida parapsilosis) [µg/mL]	MIC (Candida albicans [7]) [µg/mL]	Activity (BT-549)	Activity (RAW264.7 [9])	zone of inhibition at 2000 µg/mL (Candida tropicalis [10]) [mm]	Activity (Vero)	Activity (Colletotrichum fragariae)	IC50 (HL-60 [11]) [µg/mL]	Activity (SK-MEL)	inhibition (INH) (Transcription factor Sp1)	Activity (SK-OV-3)	also measured
O=C(N/N=C/c1ccc(Br)s1)c1ccc(F)cc1	9	250 (≈ 764 µM)	250 (≈ 764 µM)	250 (≈ 764 µM)	250 (≈ 764 µM)	inactive	Not Active	250 (≈ 764 µM)	> 76.4	250 (≈ 764 µM)	125 (≈ 382 µM)	inactive	Non-toxic	9	Not Active	inactive	16 (≈ 48.9 µM)	inactive	Not Active	inactive	inhibition (SW1353): inactive; inhibition (HL-60 [8]): inactive; inhibition of growth at 30 µM (Fusarium oxysporum): 40%; inhibition of growth at 30 µM (Diaporthe ampelina): 91%; Activity (KB): inactive; MIC (Pichia kudriavzevii): 250 µg/mL (≈ 764 µM); inhibition of growth at 30 µM [12]: 32%
C=C1C(=O)O[C@@H]2C3O[C@]3(C)CC/C=C(\C)CC[C@@H]12 (some centres undefined)									1.61												IC50 (RAW264.7 [13]): 13 µg/mL (≈ 52.4 µM); IC50 [14]: 0.68 µg/mL (≈ 2.74 µM)
COc1ccc(C2OC(c3ccc(F)cc3)=NN2C(C)=O)cc1O (centres undefined)	9	250 (≈ 757 µM)	250 (≈ 757 µM)	250 (≈ 757 µM)	500 (≈ 1510 µM)	inactive	Not Active	500 (≈ 1510 µM)	12.1	500 (≈ 1510 µM)	500 (≈ 1510 µM)	inactive	Non-toxic	9	Not Active	inactive	20 (≈ 60.5 µM)	inactive	Not Active	inactive	IC50 (HL-60 [15]): 0.9 µg/mL (≈ 2.72 µM); IC50 [14]: 0.75 µg/mL (≈ 2.27 µM); Activity (KB): inactive; MIC (Pichia kudriavzevii): 500 µg/mL (≈ 1510 µM)
